The values below are quoted from earlier work in patent US20210205199A1, “Dermatological Cosmetic Composition Comprising an SDKP Peptide or an Analog Thereof” (RPM Dermatologie, priority 2016, published 2021).

For this series the following is noted: result in words; background.

Consider “acetyl-serine-aspartic acid-lysine-proline-OH [Ac-SDKP-OH]”, for which the “Sensitivity to enzymatic hydrolysis” value is listed as “very sensitive to enzymatic hydrolysis” and the Stability to hydrolysis entry was “hydrolyzes very easily”.
